PubChem BioAssay (NCI)
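Test compounds were applied to cells in 96-well plates for 48 hours at 5 doses. Here, GI50 denotes the concentration required for 50% inhibition of growth. TGI denotes the concentration required for complete inhibition of growth.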

Legend:
Experiment in all cases: DTP human tumour cell line panel, 48 h
[1] = test system: HOP-92 NSCLC
[2] = test system: NCI/ADR-RES ovarian
[3] = test system: BT-549 breast
[4] = test system: SK-MEL-5 melanoma
[5] = test system: OVCAR-4 ovarian
[6] = test system: COLO 205 colon
[7] = test system: HCC-2998 colon
[8] = test system: 786-0 renal
[9] = test system: OVCAR-8 ovarian
[10] = test system: CCRF-CEM leukemia

Row | SMILES | TGI [1] [µM] | TGI [2] [µM] | TGI [3] [µM] | TGI [4] [µM] | TGI [5] [µM] | TGI [6] [µM] | TGI [7] [µM] | TGI [8] [µM] | TGI [9] [µM] | GI50 [2] [µM] | GI50 [4] [µM] | GI50 [6] [µM] | GI50 [7] [µM] | GI50 [8] [µM] | GI50 [10] [µM] | TGI [10] [µM] | GI50 [9] [µM] | GI50 [1] [µM] | GI50 [5] [µM] | GI50 [3] [µM]
1 | C=CC(C)(O)/C=C/C=C(\C)C(CC1OC1(C)C)OC(=O)/C(C)=C\C (centres undefined) | > 100 | > 100 | > 100 | > 100 | > 100 | > 100 | > 100 | > 100 | > 100 | – | – | – | – | – | – | – | – | – | – | –
2 | C=CC(C=O)C1(O)CCOC(=O)/C1=C\N (centres undefined) | – | > 100 | – | > 100 | – | > 100 | > 100 | > 100 | > 100 | > 100 | 62.4 | > 100 | > 100 | > 100 | > 100 | > 100 | > 100 | – | – | –
3 | O=c1cccccc1NCCCCCCNc1cccccc1=O | – | – | – | > 100 | > 100 | > 100 | > 100 | > 100 | > 100 | – | – | – | – | – | – | > 100 | – | – | – | –
4 | O=C(c1ccccc1)c1ccc(OCCOc2ccc(Nc3ccccc3)cc2)cc1 | 73.5 | – | – | > 100 | 54.8 | > 100 | > 100 | > 100 | > 100 | – | – | – | – | – | – | > 100 | – | – | – | –
5 | CC/C(=C(/CC)c1ccc([O-])cc1)c1ccc([O-])cc1.CC/C(=C(\CC)c1ccc([O-])cc1)c1ccc([O-])cc1.O=C([CH-]C(=O)c1ccccc1)c1ccccc1.O=C([CH-]C(=O)c1ccccc1)c1ccccc1.O=C([CH-]C(=O)c1ccccc1)c1ccccc1.O=C([CH-]C(=O)c1ccccc1)c1ccccc1.[Ti+4].[Ti+4] | 50 | – | – | – | > 100 | > 100 | > 100 | 32.4 | 50.1 | – | – | 37.9 | 45.7 | 16.9 | 21 | 93.8 | 20.7 | 19.5 | 42.9 | –
6 | CN(C)CCNC(=O)Cn1cc([N+](=O)[O-])c(=O)c2ccccc21 | – | > 100 | > 100 | > 100 | – | > 100 | > 100 | > 100 | > 100 | – | – | – | – | – | – | > 100 | – | – | – | –
7 | CCOC(=O)C1=C(C)NC2SC(=O)/C(=C\c3ccccc3O)N2C1c1ccccc1 (centres undefined) | 43.2 | 60.3 | 59.8 | 32.5 | – | 72.8 | 64.8 | > 100 | 61.6 | 23.3 | 17.2 | 23.2 | 26.5 | 28.6 | 10.2 | 75.2 | 24.6 | 20.8 | – | 23.3
8 | COc1cnc2c(c1)C(=O)c1c-2n(CCCN2CCC(O)CC2)c(=O)c2cc(F)ccc12 | 3.22 | 1.98 | 14.4 | 0.628 | – | – | 9.98 | 0.925 | 1.16 | 0.303 | 0.201 | – | 1.23 | 0.211 | 0.0797 | 1.95 | 0.173 | 0.31 | – | 0.697
9 | CCOC(=O)C1=C(O)CSC1=Nc1ccccc1 | > 100 | – | – | – | > 100 | > 100 | > 100 | > 100 | > 100 | – | – | – | – | – | – | – | – | – | – | –
10 | CC(=O)c1cccc(NC(=O)C(=O)C(C2OC(=O)c3ccccc32)[N+](=O)[O-])c1 (centres undefined) | > 100 | – | – | > 100 | > 100 | > 100 | > 100 | > 100 | – | – | – | – | – | – | – | > 100 | – | – | – | –
11 | COc1ccc(C(=O)C(C(=O)C(=O)Nc2ccc(Cl)c(Cl)c2)c2ccc(OC)cc2)cc1 (centres undefined) | > 100 | – | – | > 100 | > 100 | – | > 100 | > 100 | > 100 | – | – | – | – | – | – | – | – | – | – | –
12 | CN1CCN(Cc2ccc(NC(=O)c3cncc(C#Cc4cncc5ncccc45)c3)cc2C(F)(F)F)CC1 | 4.92 | 18.9 | 20.4 | 13.6 | – | 13.2 | 17.6 | 22.2 | 18.3 | 5.34 | 2.95 | 1.11 | 2.46 | 9.81 | 3.27 | 34.8 | 4.53 | 1.16 | – | 7.9
13 | CN[C@@H](C)[C@@H](N)c1ccccc1 | > 100 | – | – | > 100 | – | > 100 | > 100 | > 100 | > 100 | – | – | – | – | – | – | > 100 | – | – | – | –
14 | Cc1ccc(Nc2n[nH]c(=S)s2)cc1 | > 100 | > 100 | – | > 100 | – | > 100 | > 100 | > 100 | > 100 | – | – | – | – | – | – | > 100 | – | – | – | –
15 | Cc1ccc(C)c(NC(=O)NCc2ccc(Cl)cc2)c1 | 63.5 | > 100 | > 100 | > 100 | > 100 | > 100 | – | > 90.3 | > 100 | – | – | – | – | – | – | > 27.6 | – | – | – | –
16 | CCCC[N+](CCCC)=c1ccc2nc3c(C)cc(N(CC)CC)cc3sc-2c1 | – | 1.84 | 1.73 | 0.403 | 1.11 | – | – | 1.44 | 2.16 | 0.327 | 0.0993 | – | – | 0.302 | 0.0923 | 3.42 | 0.0703 | – | 0.0517 | 0.225
17 | NNC(=S)N/N=C(/C(=O)Nc1cc(Cl)ccc1Cl)C1C(=O)Nc2ccccc2S1=O (centres undefined) | > 100 | – | – | > 100 | > 100 | > 100 | > 100 | > 100 | > 100 | – | – | – | – | – | – | > 100 | – | – | – | –
18 | O=C1N(c2ccccc2)C(=O)C2(SC=NN2Cc2ccccc2)N1c1ccccc1 (centres undefined) | > 100 | – | – | > 100 | > 100 | > 100 | > 100 | > 100 | > 100 | – | – | – | – | – | – | > 100 | – | – | – | –
19 | C1C[S][Ge]2([S]CCO1)[S]CCOCC[S]2 | > 100 | – | – | – | > 100 | > 100 | > 100 | > 100 | – | – | – | > 100 | > 100 | > 100 | > 100 | > 100 | – | > 100 | > 100 | –
20 | Cc1c(C(=O)C/C(=N/NC(=O)C[n+]2ccccc2)C(=O)Nc2ccccc2)[n+](=O)c2ccccc2n1O | – | – | – | > 100 | > 100 | > 100 | > 100 | > 100 | > 100 | – | – | – | – | – | – | > 100 | – | – | – | –
